Columns and labels:
Escherichia coli = assay: MIC, liquid culture dilution (single chelates and cross-dilution combinations); type: cell-based
[1] = tested on: Brachyspira hyodysenteriae; assay: MIC (single chelates and combinations)
Salmonella enterica = assay: MIC, liquid culture dilution (single chelates and cross-dilution combinations); type: cell-based, Salmonella enterica subp. Enterica serovar enteritidis
LACTIC ACID PRODUCERS = assay: MIC, liquid culture dilution; type: cell-based
Staphylococcus aureus = assay: MIC, liquid culture dilution; type: cell-based
Clostridium perfringens = type: cell-based
Streptococcus agalactiae = assay: MIC, liquid culture dilution; type: cell-based
Saccharomyces cerevisiae = assay: MIC, liquid culture dilution; type: cell-based

Compound	Minimal inhibitory concentration (MIC) (Escherichia coli) [ppm]	Minimal inhibitory concentration (MIC) [1] [ppm]	Minimal inhibitory concentration (MIC) (Salmonella enterica) [ppm]	Minimal inhibitory concentration (MIC) (LACTIC ACID PRODUCERS) [ppm]	Minimal inhibitory concentration (MIC) (Staphylococcus aureus) [ppm]	Minimal inhibitory concentration (MIC) (Clostridium perfringens) [ppm]	Minimal inhibitory concentration (MIC) (Streptococcus agalactiae) [ppm]	Minimal inhibitory concentration (MIC) (Saccharomyces cerevisiae) [ppm]
Zn malate [Zn(H2O)-bis-malate]	90	4400	120	500	160	360	180	600
Zn diaminonitrolo triacetic acid	–	600	–	–	–	400	–	–
Zn diammine bis-asparaginate	–	–	–	–	62	494	15	–
Cu diammine glutamate	688	–	–	–	–	43	11	–
CCCC(=O)[O-].CCCC(=O)[O-].O.[Zn+2] [Zn(H2O) bis-butyrate]	110	–	110	–	–	–	–	–
Zn (H2O)2-ethylenediamine tetraacetic acid	–	320	–	–	–	400	–	–
Zn(H2O) tri-aspartate	75	–	70	–	–	–	–	–
Zn diammine tri-asparaginate	–	–	–	–	114	456	14	–
Cu diammine tri-asparaginate	1400	–	>4000	–	1400	44	43	–
C[C@H](N)C(=O)[O-].C[C@H](N)C(=O)[O-].O.[Zn+2] [Zn(H2O) bis-alaninate]	100	>4000	110	–	–	>4000	–	–
[NH3+][Cu]([NH3+])([O]C(=O)C(O)CC(=O)O)[O]C(=O)C(O)CC(=O)O (stereo not shown) [Cu diammine bis-malate]	262	143	–	–	262	65	131	–
NC(Cc1cnc[nH]1)C(=O)[O-].NC(Cc1cnc[nH]1)C(=O)[O-].[Zn+2] (stereo not shown) [Zn bis-histidinate]	>4000	–	>4000	–	>4000	650	4	–
CCC(=O)[O-].CCC(=O)[O-].O.[Zn+2] [Zn(H2O) bis-propionate]	160	–	160	–	–	–	–	–
Zn(H2O) bis-glutamate	–	–	–	–	21	331	10	–
Zn asparaginate	–	–	–	–	18	297	37	–
O=C(O)c1ccccc1[O-].O=C(O)c1ccccc1[O-].[Zn+2] [Zn bis-salycilate]	>4000	–	>4000	–	–	>4000	–	–
O.O.O=C([O-])CN(CCN(CC(=O)[O-])CC(=O)O)CC(=O)O.[Cu+2] [Cu(H2O)2-ethylenediamine tetraacetic acid]	–	100	–	–	–	60	–	–
N.N.NC(CC(=O)O)C(=O)[O-].NC(CC(=O)O)C(=O)[O-].[Zn+2] (stereo not shown) [Zn diammine bis-aspartate]	123	–	247	–	–	–	–	–
NC(=O)CC(N)C(=O)[O][Cu]([NH3+])([NH3+])[O]C(=O)C(N)CC(N)=O (stereo not shown) [Cu diammine bis-asparaginate]	1025	–	2050	–	1025	32	16	–
Zn diammine bis-histidinate	>4000	–	>4000	–	>4000	1950	12	–
Zn diammine glutamate	167	–	–	–	61	245	15	–
Zn tri-asparaginate	–	–	–	–	18	450	19	–
O=C(O)CN1CCN(CC(=O)O)CC(=O)[O][Cu][O]C(=O)C1 [Cu ethylenediamine tetraacetic acid]	–	320	–	–	–	160	–	–
[NH2][Zn]1([NH2])[O]C(=O)CN(CC(=O)O)CCN(CC(=O)O)CC(=O)[O]1 [Zn diamino ethylenediamine tetraacetic acid]	–	>4000	–	–	–	100	–	–

Compound	Minimal inhibitory concentration (MIC) (Escherichia coli) [ppm]	Minimal inhibitory concentration (MIC) [1] [ppm]	Minimal inhibitory concentration (MIC) (Salmonella enterica) [ppm]	Minimal inhibitory concentration (MIC) (LACTIC ACID PRODUCERS) [ppm]	Minimal inhibitory concentration (MIC) (Staphylococcus aureus) [ppm]	Minimal inhibitory concentration (MIC) (Clostridium perfringens) [ppm]	Minimal inhibitory concentration (MIC) (Streptococcus agalactiae) [ppm]	Minimal inhibitory concentration (MIC) (Saccharomyces cerevisiae) [ppm]
O=C([O-])CN(CCN(CC(=O)O)CC(=O)O)CC(=O)[O-].[Zn+2] [Zn ethylenediamine-tetraacetic acid]	–	450	–	–	–	1000	–	–
N.N.NC(CCC(=O)O)C(=O)[O-].NC(CCC(=O)O)C(=O)[O-].[Cu+2] (stereo not shown) [Cu diammine bis-glutamate]	–	–	–	–	387	97	24	–
CCCCC(=O)[O-].CCCCC(=O)[O-].O.[Zn+2] [Zn(H2O) bis-valerianate]	120	–	120	–	–	–	–	–
Zn triammine tri-glutamate	–	–	–	–	58	469	15	–
Zn diammine aspartate	92	–	184	–	–	–	–	–
O=C(O)CC(O)C(=O)[O-].O=C(O)CC(O)C(=O)[O-].[Zn+2] (stereo not shown) [Zn bis-malate]	280	–	360	600	–	–	–	600
Cu diammine asparaginate	620	–	620	–	620	38	20	–
NC(=O)C[C@H](N)C(=O)[O-].NC(=O)C[C@H](N)C(=O)[O-].[Zn+2] [Zn bis-asparaginate]	–	–	–	–	26	412	51	–
Zn diammine asparaginate	–	–	–	–	46	369	23	–
NC(CCC(=O)[O-])C(=O)[O-].[Zn+2] (stereo not shown) [Zn mono-glutamate]	70	–	–	–	36	475	18	–
Cu diaminonitrolo triacetic acid	–	200	–	–	–	120	–	–
Cu nitrolo triacetic acid	–	450	–	–	–	>4000	–	–
N[C@@H](CC(=O)[O-])C(=O)[O-].[Zn+2] [Zn mono-aspartate]	74	–	74	–	–	–	–	–
O=C([O-])c1ccccc1.O=C([O-])c1ccccc1.[Zn+2] [Zn bis-benzoate]	>4000	–	>4000	–	–	>4000	–	–
O.O=C(O)CC(O)C(=O)[O-].O=C(O)CC(O)C(=O)[O-].[Cu+2] (stereo not shown) [Cu(H2O) bis-malate]	120	88	210	–	–	50	–	–
Zn diammine citrate	48	–	98	–	49	–	49	–
Zn(H2O) tri-glutamate	70	–	–	–	35	281	17	–
N.N.NC(CCC(=O)O)C(=O)[O-].NC(CCC(=O)O)C(=O)[O-].[Zn+2] (stereo not shown) [Zn diammine bis-glutamate]	–	–	–	–	42	334	21	–
O=C([O-])CN(CC(=O)[O-])CC(=O)O.[Zn+2] [Zn nitrolotriacetate]	40	–	40	–	–	–	–	–
Zn diammine tri-aspartate	114	–	228	–	–	–	–	–
Zn(H2O) bis-aspartate	103	–	–	–	–	–	–	–
Zn(NH4)4(glycine)2 [Zn tetraammine bis-glycinate]	140	–	140	–	–	–	–	–
Cu diammine tri-glutamate	–	–	–	–	487	30	8	–

From patent US10821093B2, “Antibacterial microelement chelates and the use thereof in animal feeds” (priority 2012, dated 2020)
